What was measured:
[1] = The drug is tested on Ruminococcus lactaris strain: ATCC29176 for biotransformation. The drug concentrations were measured before and after a 12-h incubation by liquid-chromatography-coupled mass spectrometry (LC–MS); settings: 2 µM
[2] = segatella copri, 12 h, 2 µM
Description: The drug is tested on Prevotella copri strain: DSM18205 for biotransformation. The drug concentrations were measured before and after a 12-h incubation by liquid-chromatography-coupled mass spectrometry (LC–MS)

[3] = The drug is tested on Bacteroides finegoldii strain: DSM17565 for biotransformation. The drug concentrations were measured before and after a 12-h incubation by liquid-chromatography-coupled mass spectrometry (LC–MS); settings: 2 µM
[4] = parabacteroides distasonis, 12 h, 2 µM
Description: The drug is tested on Parabacteroides distasonis strain: ATCC8503 for biotransformation. The drug concentrations were measured before and after a 12-h incubation by liquid-chromatography-coupled mass spectrometry (LC–MS)

[5] = bacteroides fragilis, 12 h, 2 µM
Description: The drug is tested on Bacteroides fragilis strain: NCTC 9343 for biotransformation. The drug concentrations were measured before and after a 12-h incubation by liquid-chromatography-coupled mass spectrometry (LC–MS)

[6] = The drug is tested on Bifidobacterium breve strain: DSM20213 for biotransformation. The drug concentrations were measured before and after a 12-h incubation by liquid-chromatography-coupled mass spectrometry (LC–MS); settings: 2 µM
[7] = The drug is tested on Clostridium scindens strain: ATCC35704 for biotransformation. The drug concentrations were measured before and after a 12-h incubation by liquid-chromatography-coupled mass spectrometry (LC–MS); settings: 2 µM
[8] = bacteroides thetaiotaomicron, 12 h, 2 µM
Description: The drug is tested on Bacteroides thetaiotaomicron strain: 7330 for biotransformation. The drug concentrations were measured before and after a 12-h incubation by liquid-chromatography-coupled mass spectrometry (LC–MS)

[9] = roseburia intestinalis, 12 h, 2 µM
Description: The drug is tested on Roseburia intestinalis strain: L1-82 for biotransformation. The drug concentrations were measured before and after a 12-h incubation by liquid-chromatography-coupled mass spectrometry (LC–MS)

[10] = The drug is tested on Coprococcus comes strain: ATCC27758 for biotransformation. The drug concentrations were measured before and after a 12-h incubation by liquid-chromatography-coupled mass spectrometry (LC–MS); assay type: ADME; design: dose 2 uM, timepoint 0 vs 12 hours; settings: 2 µM
[11] = The drug is tested on Eubacterium hallii strain: DSM3353 for biotransformation. The drug concentrations were measured before and after a 12-h incubation by liquid-chromatography-coupled mass spectrometry (LC–MS); settings: anaerobutyricum hallii, 2 µM
[12] = The drug is tested on Bacteroides caccae strain: ATCC43185 for biotransformation. The drug concentrations were measured before and after a 12-h incubation by liquid-chromatography-coupled mass spectrometry (LC–MS); settings: 2 µM
[13] = The drug is tested on Anaerococcus hydrogenalis strain: DSM7454 for biotransformation. The drug concentrations were measured before and after a 12-h incubation by liquid-chromatography-coupled mass spectrometry (LC–MS); settings: 2 µM
[14] = bifidobacterium adolescentis, 12 h, 2 µM
Description: The drug is tested on Bifidobacterium adolescentis strain: ATCC 15703 for biotransformation. The drug concentrations were measured before and after a 12-h incubation by liquid-chromatography-coupled mass spectrometry (LC–MS)

[15] = The drug is tested on Anaerotruncus colihominis strain: DSM17241 for biotransformation. The drug concentrations were measured before and after a 12-h incubation by liquid-chromatography-coupled mass spectrometry (LC–MS); settings: 2 µM
[16] = The drug is tested on Enterococcus faecalis strain: V583 for biotransformation. The drug concentrations were measured before and after a 12-h incubation by liquid-chromatography-coupled mass spectrometry (LC–MS); settings: 2 µM
[17] = The drug is tested on Edwardsiella tarda strain: ATCC23685 for biotransformation. The drug concentrations were measured before and after a 12-h incubation by liquid-chromatography-coupled mass spectrometry (LC–MS); settings: 2 µM
[18] = The drug is tested on Blautia luti strain: DSM14534 for biotransformation. The drug concentrations were measured before and after a 12-h incubation by liquid-chromatography-coupled mass spectrometry (LC–MS); assay type: ADME; design: dose 2 uM, timepoint 0 vs 12 hours; settings: 2 µM
[19] = The drug is tested on Bifidobacterium ruminantium strain: fecal isolate for biotransformation. The drug concentrations were measured before and after a 12-h incubation by liquid-chromatography-coupled mass spectrometry (LC–MS); settings: 2 µM
[20] = limosilactobacillus reuteri cf48-3a, 12 h, 2 µM
Description: The drug is tested on Lactobacillus reuteri CF48-3A strain: BEI HM-102 for biotransformation. The drug concentrations were measured before and after a 12-h incubation by liquid-chromatography-coupled mass spectrometry (LC–MS)

Measured: Bacterial Biotransformation

COc1ccc(CN2CCNCC2)c(OC)c1OC.Cl.Cl [TRIMETAZIDINE DIHYDROCHLORIDE]
Compound metabolized: [4] | [5] | [8]
Compound NOT metabolized: all other assays above

O=c1n(CCCN2CCN(c3cccc(Cl)c3)CC2)nc2ccccn12 [TRAZODONE]
Compound NOT metabolized: all assays above
